BindingDB's records for patent WO2022093856 (AMGEN INC., 2022)

Target: T1, GTPase KRas [1-169,G12C,C118A] (Homo sapiens, UniProt P01116, C118A/G12C)
T1 construct: 1-169
T1 sequence (P01116 1-169 G12C/C118A): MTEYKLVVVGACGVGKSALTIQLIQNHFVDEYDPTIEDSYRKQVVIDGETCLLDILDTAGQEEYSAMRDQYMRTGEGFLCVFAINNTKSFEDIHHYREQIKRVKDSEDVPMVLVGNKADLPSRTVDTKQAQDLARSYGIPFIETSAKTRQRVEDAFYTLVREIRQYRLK

C=CC(=O)N1CC2(CCN(c3nc4c(c(N[C@@H](CC(C)C)Cn5ccnn5)n3)CCC(C)(C)C4)C2)C1 [WO2022093856, Example 1-47]
IC50: 822 nM
